Data taken from paper PMC10290954 (Nature Metabolism, 2023).
Several values for one entry are separate records, joined by “and”; a condition that tells them apart may be missing. Equal entries are not always repeated.

Assays:
[1] = target: mouse GLP-1 receptor (mouse) (UniProt O35659); test: other; competition with radioligand, header printed as [125I]GIP(1-42)OH
mouse GIP receptor [2] = target: T1, mouse GIP receptor (Mus musculus, UniProt Q0P543); test: Gs recruitment (ligand-induced BRET), mouse GIPR; type: cell-based; parameters: expressed in transfected cells; conditions: HEK-293T, read-out: Gs recruitment Emax
T1 sequence (Q0P543 19-460): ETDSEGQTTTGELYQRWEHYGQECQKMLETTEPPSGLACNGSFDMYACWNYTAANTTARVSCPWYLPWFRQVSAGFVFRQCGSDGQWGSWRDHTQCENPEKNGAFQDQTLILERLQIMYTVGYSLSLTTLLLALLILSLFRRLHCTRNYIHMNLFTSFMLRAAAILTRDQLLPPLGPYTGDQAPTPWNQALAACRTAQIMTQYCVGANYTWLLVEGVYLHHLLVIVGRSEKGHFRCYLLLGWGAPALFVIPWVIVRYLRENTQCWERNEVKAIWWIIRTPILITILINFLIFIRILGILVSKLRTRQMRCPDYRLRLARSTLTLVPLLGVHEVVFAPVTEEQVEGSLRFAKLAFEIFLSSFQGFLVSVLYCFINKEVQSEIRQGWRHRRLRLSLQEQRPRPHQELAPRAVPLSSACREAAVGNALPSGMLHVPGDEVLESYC
Method: (§1) BRET measurements were taken every 1 min using a PHERAstar FS multi-mode microplate reader. Baseline measurements were taken after an initial 5 min incubation with coelenterazine-h or NanoGlo-containing HBSS, after which cells were treated with either a vehicle (PBS) or the respective ligands. Ligand-specific ratiometric BRET signals were normalized to the vehicle, producing the ‘ligand-induced BRET ratio’[46], followed by additional normalization to well-specific baseline readings. Ligand-induced measurements on the temporal scale are represented as the subsequent measurement after time point zero. Positive or negative incremental area under the curves (+iAUC, –iAUC) were calculated where noted. Concentration–response curves were generated by three-parameter logistic fitting in Prism 9.0.

mouse GIP receptor [3] = target: T1, mouse GIP receptor; test: [35S]GTPγS binding, mouse GIPR; type: biochemical; parameters: expressed in transfected cells; host or cells: low-receptor-density clonal cell lines
Method: (§2) Methods for these assays have been previously described. In brief, for GTPγs binding, the potency of ligands to stimulate receptor-dependent elevation of the GTPγS-bound Gαs subunit was determined using membrane preparations from low-receptor-density receptor clonal cell lines. Reactions were incubated for 30 min at room temperature in white, clear-bottom microtiter plates, and per cent of the maximal response was calculated using control wells as a reference. Relative EC50 values were derived by nonlinear regression analysis using the per cent response versus the concentration of ligand and fitted to a four-parameter logistic equation using GraphPad Prism 7 software. For cAMP assays, kinetic cAMP assays were performed in low-density receptor cell clones transfected with the Glosensor 22 F vector (Promega). Cells were equilibrated for 5–20 min and then 20 μl of 10× ligand was added and a luminescence time course was collected.

mouse GIP receptor [4] = target: T1, mouse GIP receptor; test: cAMP generation (Glosensor), mouse GIPR; type: cell-based; parameters: expressed in transfected cells; host or cells: low-receptor-density clonal cell lines; conditions: mouse GIPR, low-density receptor clones, Glosensor; mean (s.e.m., n); read-out: cAMP Emax
Method: as §2, with “collected. Ligand (10×) was titrated by manual serial dilution in DMSO followed by step-down into assay buffer.” for “collected.”

Mouse GLP-1R [5] = target: T2, Mouse GLP-1R (Mus musculus, UniProt O35659); test: Gs recruitment (ligand-induced BRET), mouse GLP-1R; type: cell-based; conditions: mean (SEM, n)
T2 construct: expressed in transfected cells; host or cells: HEK293T, transient (Lipofectamine 2000)
T2 sequence (O35659 22-463): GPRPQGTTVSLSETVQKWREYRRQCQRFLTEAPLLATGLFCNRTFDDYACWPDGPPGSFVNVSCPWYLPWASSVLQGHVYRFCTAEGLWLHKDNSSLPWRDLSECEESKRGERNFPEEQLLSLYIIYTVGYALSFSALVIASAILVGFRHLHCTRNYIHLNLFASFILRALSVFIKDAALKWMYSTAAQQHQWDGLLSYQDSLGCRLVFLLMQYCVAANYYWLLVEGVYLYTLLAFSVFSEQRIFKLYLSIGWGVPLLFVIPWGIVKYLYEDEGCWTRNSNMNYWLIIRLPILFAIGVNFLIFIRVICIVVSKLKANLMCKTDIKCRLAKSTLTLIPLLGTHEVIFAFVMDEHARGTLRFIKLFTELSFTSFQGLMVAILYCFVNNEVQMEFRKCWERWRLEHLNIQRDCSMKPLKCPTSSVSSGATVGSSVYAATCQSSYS
Method: as §1

Mouse GLP-1R [6] = target: T2, Mouse GLP-1R; test: cAMP generation (Glosensor), mouse GLP-1R; type: cell-based
Method: as §2, with “collected. Ligand (10×) was titrated by manual serial dilution in DMSO followed by step-down into assay buffer.” for “collected.”

[7] = in vivo; cited from earlier work
Source text: Tirzepatide is an agonist for both incretin receptors, engineered from the human GIP (hGIP) peptide sequence. It has an average half-life of approximately 5 days, enabling once-weekly dosing.

human islets = test: Human islets, glucagon secretion with tirzepatide at 2.7 or 10 mM glucose ± alanine (Fig. 3d); type: cell-based
Method: Human islets were obtained from both the Alberta Diabetes Institute and the Integrated Islet Distribution Program. All islets were obtained from consenting donors. Details for the general perifusion protocol have been previously described[21] and are similar to the mouse perifusion protocol. […] Each set of human islets consisted of n = 3 for each condition. These were averaged to generate a single data point (Fig. 2c). Insulin values were measured with a Lumit insulin immunoassay (Promega) using an EnVision plate reader (PerkinElmer). For the glucagon secretion experiments (Fig. 3), the average glucagon values were calculated during control (minutes 35–45) and stimulated (minutes 55–65) conditions. All peptides were used at 30 nM concentrations based on previous work[16]. Amino acids were used at concentrations of 3 mM based on previous work[11]. Glucagon was measured with a Lumit Glucagon Immunoassay Kit (cat. no. CS3037A02; Promega) using an EnVision plate reader (PerkinElmer). Somatostatin was measured with an ELISA assay (cat. no. FEK-060-14; Phoenix Pharmaceuticals). All data are expressed as the measured concentration relative to both flow rate and islet number (insulin, ng ml^–1 × (1/200 µl ml^–1) × (1/75 islets); glucagon, pM × (1/200 µl ml^–1) × (1/75 islets); somatostatin, pg ml^–1 × (1/200 µl ml^–1) × (1/75 islets))[49]. […]

TZP gave a Ki [1] of 0.387 nM.
Work on `CC[C@H](C)[C@H](NC(=O)[C@H](CO)NC(=O)[C@H](Cc1ccc(O)cc1)NC(=O)[C@H](CC(=O)O)NC(=O)[C@H](CO)NC(=O)[C@@H](NC(=O)[C@H](Cc1ccccc1)NC(=O)[C@@H](NC(=O)CNC(=O)[C@H](CCC(=O)O)NC(=O)[C@H](C)NC(=O)[C@@H](N)Cc1ccc(O)cc1)[C@@H](C)O)[C@@H](C)CC)C(=O)N[C@@H](C)C(=O)N[C@@H](CCSC)C(=O)N[C@@H](CC(=O)O)C(=O)N[C@@H](CCCCN)C(=O)N[C@H](C(=O)N[C@@H](CCCNC(=N)N)C(=O)N[C@@H](CCC(N)=O)C(=O)N[C@@H](CCC(N)=O)C(=O)N[C@@H](CC(=O)O)C(=O)N[C@@H](Cc1ccccc1)C(=O)N[C@H](C(=O)N[C@@H](CC(N)=O)C(=O)N[C@@H](Cc1c[nH]c2ccccc12)C(=O)N[C@@H](CC(C)C)C(=O)N[C@@H](CC(C)C)C(=O)N[C@@H](C)C(=O)N[C@@H](CCC(N)=O)C(=O)N[C@@H](CCCNC(=N)N)C(=O)NCC(=O)N[C@@H](CCCCN)C(=O)N[C@@H](CCCCN)C(=O)N[C@@H](CO)C(=O)N[C@@H](CC(=O)O)C(=O)N[C@@H](Cc1c[nH]c2ccccc12)C(=O)N[C@@H](CCCCN)C(=O)N[C@@H](Cc1c[nH]cn1)C(=O)N[C@@H](CC(N)=O)C(=O)N[C@H](C(=O)N[C@H](C(=O)N[C@@H](CCC(N)=O)C(N)=O)[C@@H](C)O)[C@@H](C)CC)C(C)C)[C@@H](C)CC` [mGIP] yielded an Emax (mouse GIP receptor [2]) of 100%, an Emax (mouse GIP receptor [3]; mGIPR GTPgS, run of 2019-06-25) of 98.5% and an Emax (mouse GIP receptor [3]; mGIPR GTPgS, run of 2022-05-11) of 98.7%. It also gave an Emax (mouse GIP receptor [3]; mGIPR GTPgS, run of 2022-05-12) of 98%, an Emax (mouse GIP receptor [3]; mGIPR GTPgS, run of 2022-06-16) of 101% and an Emax (mouse GIP receptor [3]; mGIPR GTPgS, run of 2022-06-21) of 102%. For the same compound, the Emax (mouse GIP receptor [3]; read-out: [35S]GTPγS binding Emax, mouse GIPR, membranes, 30 min room temperature, mean (s.e.m., n)) was 98.9% and the Emax (mouse GIP receptor [4]) was 103%.
Compound `CC[C@H](C)[C@H](NC(=O)[C@H](CC(C)C)NC(=O)[C@H](Cc1c[nH]c2ccccc12)NC(=O)[C@H](CCC(N)=O)NC(=O)[C@@H](NC(=O)[C@H](Cc1ccccc1)NC(=O)[C@H](C)NC(=O)[C@H](CCCCNC(=O)COCCOCCNC(=O)COCCOCCNC(=O)CC[C@H](NC(=O)CCCCCCCCCCCCCCCCCCC(=O)O)C(=O)O)NC(=O)[C@H](CCC(N)=O)NC(=O)[C@H](C)NC(=O)[C@@H](NC(=O)[C@H](CCCCN)NC(=O)[C@H](CC(=O)O)NC(=O)[C@H](CC(C)C)NC(=O)C(C)(C)NC(=O)[C@@H](NC(=O)[C@H](CO)NC(=O)[C@H](Cc1ccc(O)cc1)NC(=O)[C@H](CC(=O)O)NC(=O)[C@H](CO)NC(=O)[C@@H](NC(=O)[C@H](Cc1ccccc1)NC(=O)[C@@H](NC(=O)CNC(=O)[C@H](CCC(=O)O)NC(=O)C(C)(C)NC(=O)[C@@H](N)Cc1ccc(O)cc1)[C@@H](C)O)[C@@H](C)O)[C@@H](C)CC)[C@@H](C)CC)C(C)C)C(=O)N[C@@H](C)C(=O)NCC(=O)NCC(=O)N1CCC[C@H]1C(=O)N[C@@H](CO)C(=O)N[C@@H](CO)C(=O)NCC(=O)N[C@@H](C)C(=O)N1CCC[C@H]1C(=O)N1CCC[C@H]1C(=O)N1CCC[C@H]1C(=O)N[C@@H](CO)C(N)=O` [TZP, tirzepatide] has an Emax (Mouse GLP-1R [5]) of 35.6%, an Emax (Mouse GLP-1R [6]; HEK293, mouse GLP-1R HEK-293 cells, n = 6, read-out: Emax, mean of column (T-test Emax, cAMP)) of 95% and an Emax (Mouse GLP-1R [6]; HEK293, read-out: Arthmetic Mean Emax) of 95%. The Emax (Mouse GLP-1R [6]; Mouse GLP-1R, mean (n), read-out: cAMP EMAX) was 84%, the Half-life [7] was “approximately 5 days” and the Emax (mouse GIP receptor [2]; mouse GIPR, HEK293T BRET, mean (s.e.m., n)) was 72.6%. For the same compound, the Emax (mouse GIP receptor [4]) was 103%.
For `C[C@H](N)C(=O)O` [Alanine], the “iAUC values (glucagon secretion)” value (human islets) was 42.82 and 37.07 and 49.41 and 40.38 and 34.9 and 39.11.
